Experimental data from patent publication US12668585B2, “Substituted pyrimidinyl-pyrazoles as CDK2 inhibitors” (BLUEPRINT MEDICINES CORPORATION, priority 2021, dated 2026).

Legend:
[1] = target: T1, CDK2/Cyclin E (Homo sapiens, UniProt P24941); assay: Biochemical CDK inhibition assay (Caliper mobility shift), CDK2/Cyclin E; conditions: read-out: CDK2/cyclin E1 IC50
T1 construct: purchased Eurofins 14-475
Description: (§1) Inhibitory effects of the compounds of the disclosure were measured in biochemical assays that measure the enzymatic phosphorylation activity of CDK enzyme in complex of Cyclin proteins phosphorylates 7.5 micromolar fluorescently labelled peptide substrate, 5-FAM-QSPKKG-CONH2, (FL-Peptide 18, Perkin Elmer, 760362) in the presence of adenosine-5′-triphosphate (ATP) and varying concentrations of the test compound in 100 mM 2-[4-(2-hydroxyethyl)piperazin-1-yl] ethanesulfonic acid (HEPES), pH 7.5, 10 mM MgCl2, 0.015% Brij-35, 1 mM dithiothreitol (DTT), 1.0% dimehylsulfoxide (DMSO). […] Reactions proceeded until between 10% to 20% total peptides were phosphorylated at room temperature (25° C.) and were terminated with 35 mM 2,2′,2″,2′″-(ethane-1,2-diyldinitrilo)tetraacetic acid (EDTA). Product was detected using the Caliper mobility shift detection method where the phosphorylated peptide (product) and substrate were electrophoretically separated and measured. Percent activity was plotted against log concentration of compound and points to generate an apparent IC50. The following CDK enzymes in complex with different cyclin proteins were used in these assays: • CDK1/Cyclin B1, GST-tag (BPS, 40454), 1.5 nM used in the assay • CDK2/Cyclin E (Eurofins, 14-475), 1.25 nM used in the assays
(§2) For inhibitory activity against CDK2/Cyclin E mutant, the following designations are used: ≤10 nM=A; >10-20 nM=B; >20-30 nM=C; >30-100 nM=D and >100=E. For inhibition CDK1/Cyclin B1, GST-tag: ≥500 nM=A; <100-500 nM=B; <100 nM=C.

[2] = target: T2, CDK1/Cyclin B1, GST-tag (Homo sapiens, UniProt P06493); assay: Biochemical CDK inhibition assay (Caliper mobility shift), CDK1/Cyclin B1
T2 construct: GST; purchased BPS 40454
Description: as §1, §2

T2 sequence (P06493 whole entry): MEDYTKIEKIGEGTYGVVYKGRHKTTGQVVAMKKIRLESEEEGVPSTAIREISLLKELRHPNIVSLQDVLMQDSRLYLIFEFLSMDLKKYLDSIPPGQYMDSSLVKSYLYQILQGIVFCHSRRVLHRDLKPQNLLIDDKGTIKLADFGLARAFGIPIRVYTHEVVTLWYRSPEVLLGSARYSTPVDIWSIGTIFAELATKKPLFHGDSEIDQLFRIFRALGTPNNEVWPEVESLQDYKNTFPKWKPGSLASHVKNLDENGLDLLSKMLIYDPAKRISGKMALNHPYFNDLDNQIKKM
T2 sequence (P14635 whole entry partner): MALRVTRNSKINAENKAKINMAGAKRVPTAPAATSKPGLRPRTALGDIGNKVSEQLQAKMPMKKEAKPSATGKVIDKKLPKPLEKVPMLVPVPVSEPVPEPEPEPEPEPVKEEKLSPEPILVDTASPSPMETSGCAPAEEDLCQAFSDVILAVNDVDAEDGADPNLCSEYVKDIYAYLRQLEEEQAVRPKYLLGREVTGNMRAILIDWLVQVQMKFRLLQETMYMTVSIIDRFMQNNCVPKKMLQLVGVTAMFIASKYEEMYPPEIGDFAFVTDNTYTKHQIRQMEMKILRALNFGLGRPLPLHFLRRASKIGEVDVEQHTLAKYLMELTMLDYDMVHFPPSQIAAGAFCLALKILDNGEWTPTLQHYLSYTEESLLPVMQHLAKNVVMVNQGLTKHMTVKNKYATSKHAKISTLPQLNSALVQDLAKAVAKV

SMILES	IC50 [1] [µM]	IC50 [2] [µM]
Cc1cc(S(N)(=O)=O)ccc1Nc1ncc(C(F)(F)F)c(-c2cnn(CC(C)(C)O)c2)n1 [Example 2, 4-((4-(1-(2-hydroxy-2-methylpropyl)-1H-pyrazol-4-yl)-5-(trifluoromethyl)pyrimidin-2-yl)amino)-3-methylbenzenesulfonamide]	≤ 0.01	0.1 to 0.5
NS(=O)(=O)c1ccc(Nc2ncc(C(F)(F)F)c(-c3cnn(C4(CO)CC4)c3)n2)c(F)c1 [Example 16, 3-fluoro-4-((4-(1-(1-(hydroxymethyl)cyclopropyl)-1H-pyrazol-4-yl)-5-(trifluoromethyl)pyrimidin-2-yl)amino)benzenesulfonamide]	≤ 0.01	0.1 to 0.5
CC(C)(O)Cn1cc(-c2nc(Nc3ccc(S(N)(=O)=O)cc3)ncc2C(F)(F)F)cn1 [Example 5, 4-((4-(1-(2-hydroxy-2-methylpropyl)-1H-pyrazol-4-yl)-5-(trifluoromethyl)pyrimidin-2-yl)amino)benzenesulfonamide]	≤ 0.01	< 0.1
Cc1cnc(Nc2ccc(S(N)(=O)=O)cc2)nc1-c1cnn(CC(C)(C)O)c1 [Example 17, 4-((4-(1-(2-hydroxy-2-methylpropyl)-1H-pyrazol-4-yl)-5-methylpyrimidin-2-yl)amino)benzenesulfonamide]	≤ 0.01	0.1 to 0.5
C[C@@H](O)[C@H](C)n1cc(-c2nc(Nc3ccc(S(N)(=O)=O)cc3F)ncc2C(F)(F)F)cn1 (single isomer, unassigned) [Example 13]	≤ 0.01	0.1 to 0.5
Cc1cc(S(N)(=O)=O)ccc1Nc1ncc(Cl)c(-c2cnn(CC(C)(C)O)c2)n1 [Example 14]	≤ 0.01	< 0.1
C[C@H](O)[C@@H](C)n1cc(-c2nc(Nc3ccc(S(N)(=O)=O)cc3F)ncc2C(F)(F)F)cn1 (single isomer, unassigned) [Example 15]	≤ 0.01	0.1 to 0.5
CC(C)(O)Cn1cc(-c2nc(Nc3ccc(S(N)(=O)=O)cc3)ncc2C#N)cn1 [Example 8, 4-((5-cyano-4-(1-(2-hydroxy-2-methylpropyl)-1H-pyrazol-4-yl)pyrimidin-2-yl)amino)benzenesulfonamide]	≤ 0.01	< 0.1
CC(C)(O)Cn1cc(-c2nc(Nc3ccc(S(N)(=O)=O)cc3)ncc2Cl)cn1 [Example 3, 4-((5-chloro-4-(1-(2-hydroxy-2-methylpropyl)-1H-pyrazol-4-yl)pyrimidin-2-yl)amino)benzenesulfonamide]	≤ 0.01	< 0.1
C[C@H](n1cc(-c2nc(Nc3ccc(S(N)(=O)=O)cc3F)ncc2C(F)(F)F)cn1)C(C)(C)O (single isomer, unassigned) [Example 6, (S)-3-fluoro-4-((4-(1-(3-hydroxy-3-methylbutan-2-yl)-1H-pyrazol-4-yl)-5-(trifluoromethyl)pyrimidin-2-yl)amino)benzenesulfonamide or (R)-3-fluoro-4-((4-(1-(3-hydroxy-3-methylbutan-2-yl)-1H-pyrazol-4-yl)-5-(trifluoromethyl)pyrimidin-2-yl)amino)benzenesulfonamide]	≤ 0.01	< 0.1
CC(C)(O)Cn1cc(-c2nc(Nc3ccc(S(N)(=O)=O)cc3)ncc2C(F)F)cn1 [Example 4, 4-((5-(difluoromethyl)-4-(1-(2-hydroxy-2-methylpropyl)-1H-pyrazol-4-yl)pyrimidin-2-yl)amino)benzenesulfonamide]	≤ 0.01	< 0.1
CC(C)(O)Cn1cc(-c2nc(Nc3ccc(S(N)(=O)=O)cc3F)ncc2C(F)F)cn1 [Example 11, 4-((5-(difluoromethyl)-4-(1-(2-hydroxy-2-methylpropyl)-1H-pyrazol-4-yl)pyrimidin-2-yl)amino)-3-fluorobenzenesulfonamide]	≤ 0.01	0.1 to 0.5

The remaining lines, values ahead:

IC50 [1] [µM]	IC50 [2] [µM]	SMILES
0.01 to 0.02	≥ 0.5	N#Cc1cnc(Nc2ccc(S(N)(=O)=O)cc2)nc1-c1cnn(C2COC2)c1 [Example 39, 4-((5-cyano-4-(1-(oxetan-3-yl)-1H-pyrazol-4-yl)pyrimidin-2-yl)amino)benzenesulfonamide]
0.01 to 0.02	≥ 0.5	CC(C)(O)Cn1cc(-c2nc(Nc3ccc(S(N)(=O)=O)c(Cl)c3F)ncc2C(F)(F)F)cn1 [Example 38, 2-chloro-3-fluoro-4-((4-(1-(2-hydroxy-2-methylpropyl)-1H-pyrazol-4-yl)-5-(trifluoromethyl)pyrimidin-2-yl)amino)benzenesulfonamide]
0.01 to 0.02	≥ 0.5	C[C@H](O)Cn1cc(-c2nc(Nc3ccc(S(N)(=O)=O)cc3F)ncc2C(F)(F)F)cn1 [Example 35, (S)-3-fluoro-4-((4-(1-(2-hydroxypropyl)-1H-pyrazol-4-yl)-5-(trifluoromethyl)pyrimidin-2-yl)amino)benzenesulfonamide]
0.01 to 0.02	≥ 0.5	NS(=O)(=O)c1ccc(Nc2ncc(C(F)(F)F)c(-c3cnn(CC4(O)COC4)c3)n2)c(F)c1 [Example 41, 3-fluoro-4-((4-(1-((3-hydroxyoxetan-3-yl)methyl)-1H-pyrazol-4-yl)-5-(trifluoromethyl)pyrimidin-2-yl)amino)benzenesulfonamide]
0.02 to 0.03	≥ 0.5	CC(C)(O)Cn1cc(-c2nc(Nc3ccc(S(N)(=O)=O)cc3Cl)ncc2F)cn1 [Example 44, 3-chloro-4-((5-fluoro-4-(1-(2-hydroxy-2-methylpropyl)-1H-pyrazol-4-yl)pyrimidin-2-yl)amino)benzenesulfonamide]
0.01 to 0.02	0.1 to 0.5	Cc1cc(Nc2ncc(C(F)(F)F)c(-c3cnn(CC(C)(C)O)c3)n2)cc(C)c1S(N)(=O)=O [Example 37, 4-((4-(1-(2-hydroxy-2-methylpropyl)-1H-pyrazol-4-yl)-5-(trifluoromethyl)pyrimidin-2-yl)amino)-2,6-dimethylbenzenesulfonamide]
0.01 to 0.02	≥ 0.5	Cc1cnc(Nc2ccc(S(N)(=O)=O)cc2F)nc1-c1cnn(CC(C)(C)O)c1 [Example 36, 3-fluoro-4-((4-(1-(2-hydroxy-2-methylpropyl)-1H-pyrazol-4-yl)-5-methylpyrimidin-2-yl)amino)benzenesulfonamide]
0.02 to 0.03	≥ 0.5	NS(=O)(=O)c1ccc(Nc2ncc(C(F)(F)F)c(-c3cnn(C4COC4)c3)n2)c(F)c1 [Example 43, 3-fluoro-4-((4-(1-(oxetan-3-yl)-1H-pyrazol-4-yl)-5-(trifluoromethyl)pyrimidin-2-yl)amino)benzenesulfonamide]
≤ 0.01	0.1 to 0.5	CC(C)(O)Cn1cc(-c2nc(Nc3ccc(S(N)(=O)=O)cc3F)ncc2C#N)cn1 [Example 19, 4-((5-cyano-4-(1-(2-hydroxy-2-methylpropyl)-1H-pyrazol-4-yl)pyrimidin-2-yl)amino)-3-fluorobenzenesulfonamide]
≤ 0.01	0.1 to 0.5	CC(C)(O)Cn1cc(-c2nc(Nc3ccc(S(N)(=O)=O)cc3F)ncc2F)cn1 [Example 30, 3-fluoro-4-((5-fluoro-4-(1-(2-hydroxy-2-methylpropyl)-1H-pyrazol-4-yl)pyrimidin-2-yl)amino)benzenesulfonamide]
≤ 0.01	0.1 to 0.5	CC(C)(O)Cn1cc(-c2nc(Nc3ccc(S(N)(=O)=O)cc3Cl)ncc2Cl)cn1 [Example 23, 3-chloro-4-((5-chloro-4-(1-(2-hydroxy-2-methylpropyl)-1H-pyrazol-4-yl)pyrimidin-2-yl)amino)benzenesulfonamide]
≤ 0.01	0.1 to 0.5	CCc1cnc(Nc2ccc(S(N)(=O)=O)cc2)nc1-c1cnn(CC(C)(C)O)c1 [Example 24, 4-((5-ethyl-4-(1-(2-hydroxy-2-methylpropyl)-1H-pyrazol-4-yl)pyrimidin-2-yl)amino)benzenesulfonamide]
≤ 0.01	0.1 to 0.5	CC(C)(CO)n1cc(-c2nc(Nc3ccc(S(N)(=O)=O)cc3F)ncc2C(F)(F)F)cn1 [Example 22, 3-fluoro-4-((4-(1-(1-hydroxy-2-methylpropan-2-yl)-1H-pyrazol-4-yl)-5-(trifluoromethyl)pyrimidin-2-yl)amino)benzenesulfonamide]
≤ 0.01	0.1 to 0.5	COc1cc(S(N)(=O)=O)ccc1Nc1ncc(Cl)c(-c2cnn(CC(C)(C)O)c2)n1 [Example 28, 4-((5-chloro-4-(1-(2-hydroxy-2-methylpropyl)-1H-pyrazol-4-yl)pyrimidin-2-yl)amino)-3-methoxybenzenesulfonamide]
≤ 0.01	0.1 to 0.5	C[C@H]([C@@H](C)O)n1cc(-c2nc(Nc3ccc(S(N)(=O)=O)cc3F)ncc2C(F)(F)F)cn1 (single isomer, unassigned) [Example 25]
≤ 0.01	≥ 0.5	NS(=O)(=O)c1ccc(Nc2ncc(C(F)(F)F)c(-c3cnn(C4CCOCC4)c3)n2)c(F)c1 [Example 47, 3-fluoro-4-((4-(1-(tetrahydro-2H-pyran-4-yl)-1H-pyrazol-4-yl)-5-(trifluoromethyl)pyrimidin-2-yl)amino)benzenesulfonamide]
